Laboratory results: patent publication US12630806B2 (priority 2020, dated 2026)
“Also recorded” adds a separate entry of the source. Like-named read-outs stand apart in the source and are kept apart here.

Columns and labels:
[1] = test system: FgAA7D, Fusarium graminearum PH-1, SEQ ID NO: 113; assay type: biochemical; conditions: 150 nM enzyme, 10 mM cellobiose
[2] = biological target: T1, FgCelDH7C, Fusarium graminearum PH-1, SEQ ID NO: 1 (Table 2: SEQ ID NO: 31) (Fusarium graminearum, UniProt I1RWY4); conditions: dehydrogenase assay, 0.1 mM DCIP, 0.1 μM enzyme, 50 mM HEPES pH 7.0, FgCelDH7C
[3] = biological target: T1, FgCelDH7C, Fusarium graminearum PH-1, SEQ ID NO: 1 (Table 2: SEQ ID NO: 31); assay type: biochemical; conditions: oxidase assay, 20 mM cellobiose; for V0/E: estimated
PaLPMO9H = assay: AA7-LPMO synergy assay with PaLPMO9H on PASC or Avicel (HPAEC-PAD); assay type: biochemical, Podospora anserina
[4] = biological target: T2, MoChiO7A, Magnaporthe (anamorph Pyricularia) oryzae 70-15, SEQ ID NO: 21 (Table 2: SEQ ID NO: 35) (Pyricularia oryzae, UniProt G4NAH7); conditions: oxidase assay, 50 mM NaOAc pH 5.2, MoChiO7A
[5] = biological target: T3, FgChiO7B, Fusarium graminearum, SEQ ID NO: 20 (Table 2: SEQ ID NO: 33) (Fusarium graminearum, UniProt A0ACM8RFH6); conditions: oxidase assay, 50 mM NaOAc pH 5.2, FgChiO7B
[6] = biological target: T4, PsAA7A, Phytophthora sojae, SEQ ID NO: 7 (Table 2: SEQ ID NO: 37) (Phytophthora sojae, UniProt G4YI39); assay type: biochemical
T4 sequence (G4YI39 23-504): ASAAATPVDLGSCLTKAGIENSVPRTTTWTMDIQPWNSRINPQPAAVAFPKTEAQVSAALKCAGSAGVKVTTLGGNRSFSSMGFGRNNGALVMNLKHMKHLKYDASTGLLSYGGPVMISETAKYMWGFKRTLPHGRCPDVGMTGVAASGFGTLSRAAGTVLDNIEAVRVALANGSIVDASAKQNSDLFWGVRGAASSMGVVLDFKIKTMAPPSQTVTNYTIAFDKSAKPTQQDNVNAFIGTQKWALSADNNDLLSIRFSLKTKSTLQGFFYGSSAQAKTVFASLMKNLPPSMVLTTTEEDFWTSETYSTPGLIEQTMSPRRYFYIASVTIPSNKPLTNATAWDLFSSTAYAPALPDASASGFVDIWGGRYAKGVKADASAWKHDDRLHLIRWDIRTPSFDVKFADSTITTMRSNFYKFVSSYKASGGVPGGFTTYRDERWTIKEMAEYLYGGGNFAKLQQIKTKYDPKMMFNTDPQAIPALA

[7] = biological target: T4, PsAA7A, Phytophthora sojae, SEQ ID NO: 7 (Table 2: SEQ ID NO: 37); assay type: biochemical; remark: listed apart in the source
[8] = biological target: T3, FgChiO7B, Fusarium graminearum, SEQ ID NO: 20 (Table 2: SEQ ID NO: 33); conditions: dehydrogenase assay, 0.1 mM DCIP, 0.1 μM enzyme, 50 mM HEPES pH 7.0, FgChiO7B
[9] = biological target: T2, MoChiO7A, Magnaporthe (anamorph Pyricularia) oryzae 70-15, SEQ ID NO: 21 (Table 2: SEQ ID NO: 35); conditions: dehydrogenase assay, 0.1 mM DCIP, 0.1 μM enzyme, 50 mM HEPES pH 7.0, MoChiO7A
[10] = assay type: biochemical; conditions: GalA; V0/E values

## OC[C@H]1O[C@@H](O[C@H]2[C@H](O)[C@@H](O)C(O)O[C@@H]2CO)[C@H](O)[C@@H](O)[C@@H]1O (some centres unmarked) [Cellobiose, cellobiose]
[1]
  Estimated oxidase activity: 0.001 s⁻¹
[2]
  kcat: 30.8 ± 0.81 s⁻¹
[3]; 150 μM enzyme
  normalized rate (slope of linear region/E), initial burst: 0.00029 s⁻¹
  reaction rate, second phase: 7e-05 s⁻¹
[3]; 500 μM enzyme
  normalized rate (slope of linear region/E), initial burst: 0.00013 s⁻¹
  reaction rate, second phase: 4.1e-05 s⁻¹
[3]; 150 uM enzyme
  V0/E: (2.93E−4^c) s^−1
[3]; 500 uM enzyme
  V0/E: 1.29E−4^b s^−1

## O=C1C=CC(=Nc2cc(Cl)c(O)c(Cl)c2)C=C1 [DCIP, 2,6-dichlorophenolindophenol]
PaLPMO9H
  synergy with PaLPMO9H: released cello-oligosaccharides from PASC: inhibited the observed synergy

## OC[C@H]1O[C@@H](O[C@H]2[C@H](O)[C@@H](O)[C@H](O[C@H]3[C@H](O)[C@@H](O)C(O)O[C@@H]3CO)O[C@@H]2CO)[C@H](O)[C@@H](O)[C@@H]1O (some centres unmarked) [Cellotriose, cellotriose]
[2]
  kcat: 36.1 ± 0.74 s⁻¹

## CC(=O)N[C@H]1[C@H](O[C@H]2[C@H](O)[C@@H](NC(C)=O)C(O)O[C@@H]2CO)O[C@H](CO)[C@@H](O[C@@H]2O[C@H](CO)[C@@H](O)[C@H](O)[C@H]2NC(C)=O)[C@@H]1O (some centres unmarked) [Chitotriose, chitotriose]
[4]
  kcat: 3.71 ± 0.09 s⁻¹
[5]
  kcat: 6.14 ± 0.29 s⁻¹

## O=C(O)[C@H]1OC(O)[C@H](O)[C@@H](O)[C@H]1O (some centres unmarked) [GalA, galacturonic acid]
[6]
  V0/E: 1.7E−4^d s^−1
  oxidase activity estimated from the linear segments after the initial delayed burst: 1.7±0.6 ×10^−4 s^−1
[7]
  dehydrogenase activity (V0/E): 6.4 s⁻¹

## OC[C@H]1O[C@@H](O[C@H]2[C@H](O)[C@@H](O)[C@H](O[C@H]3[C@H](O)[C@@H](O)[C@H](O[C@H]4[C@H](O)[C@@H](O)C(O)O[C@@H]4CO)O[C@@H]3CO)O[C@@H]2CO)[C@H](O)[C@@H](O)[C@@H]1O (some centres unmarked) [Cellotetraose, cellotetraose]
[2]
  kcat: 39.2 ± 0.76 s⁻¹

## CC(=O)N[C@H]1[C@H](O[C@H]2[C@H](O)[C@@H](NC(C)=O)C(O)O[C@@H]2CO)O[C@H](CO)[C@@H](O)[C@@H]1O (some centres unmarked) [Chitobiose, chitobiose]
[4]
  kcat: 4.37 ± 0.12 s⁻¹
[8]
  kcat: 29.3 ± 0.41 s⁻¹
[5]
  kcat: 2.27 ± 0.03 s⁻¹
[9]
  kcat: 22.4 ± 0.5 s⁻¹

## CC(=O)N[C@H]1C(O)O[C@H](CO)[C@@H](O)[C@@H]1O (some centres unmarked) [GlcNAc]
[4]
  kcat: 3.8 ± 0.07 s⁻¹
[5]
  kcat: 6.76 ± 0.31 s⁻¹

## CC(=O)N[C@H]1C(O)O[C@H](CO)[C@H](O)[C@@H]1O (some centres unmarked) [GalNAc]
[4]
  kcat: 3.67 ± 0.06 s⁻¹

B1: PsAA7A: AA7 clade IIb enzyme from Phytophthora sojae, active on glucuronic and galacturonic acid (protein, listed as Phytophthora sojae)
chain: MVSSASSAIFALCSLIAAQSGLASAAATPVDLGSCLTKAGIENSVPRTTTWTMDIQPWNSRINPQPAAVAFPKTEAQVSAALKCAGSAGVKVTTLGGNRSFSSMGFGRNNGALVMNLKHMKHLKYDASTGLLSYGGPVMISETAKYMWGFKRTLPHGRCPDVGMTGVAASGFGTLSRAAGTVLDNIEAVRVALANGSIVDASAKQNSDLFWGVRGAASSMGVVLDFKIKTMAPPSQTVTNYTIAFDKSAKPTQQDNVNAFIGTQKWALSADNNDLLSIRFSLKTKSTLQGFFYGSSAQAKTVFASLMKNLPPSMVLTTTEEDFWTSETYSTPGLIEQTMSPRRYFYIASVTIPSNKPLTNATAWDLFSSTAYAPALPDASASGFVDIWGGRYAKGVKADASAWKHDDRLHLIRWDIRTPSFDVKFADSTITTMRSNFYKFVSSYKASGGVPGGFTTYRDERWTIKEMAEYLYGGGNFAKLQQIKTKYDPKMMFNTDPQAIPALA
modifications: peptide (1)..(504) PsAA7A from Phytophthora sojae - an AA7 enzyme belonging to clade IIb
PaLPMO9H; Avicel 0.5% (w/v), 35° C., 24 h, PaLPMO9H, AA7 with its substrate (cellotetraose or galacturonic acid 0.8 mM)
  synergy to LPMO catalyzed degradation of avicel: does not (or does only with a far lower extent) confer synergy
[10]
  dehydrogenase/oxidase ratio: about 4×10^4

B2: HRP: horseradish peroxidase, captures H2O2 (protein, UniProt P00433 31-338, looked up)
Peroxidase C1A: QLTPTFYDNSCPNVSNIVRDTIVNELRSDPRIAASILRLHFHDCFVNGCDASILLDNTTSFRTEKDAFGNANSARGFPVIDRMKAAVESACPRTVSCADLLTIAAQQSVTLAGGPSWRVPLGRRDSLQAFLDLANANLPAPFFTLPQLKDSFRNVGLNRSSDLVALSGGHTFGKNQCRFIMDRLYNFSNTGLPDPTLNTTYLQTLRGLCPLNGNLSALVDFDLRTPTIFDNKYYVNLEEQKGLIQSDQELFSSPNATDTIPLVRSFANSTQTFFNAFVEAMDRMGNITPLTGTQGQIRLNCRVVNSNS
PaLPMO9H; Avicel, 18 h at 35° C., HRP or SOD added
  effect of additive on PaLPMO9H-FgCelDH7C synergy / LPMO activity: inhibitory of the LPMO activity; also recorded: abolished the activity
